Test results published in PubChem BioAssay (NCI).
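How tested: cells in 96-well plates exposed to compound for 48 hours at five concentrations. GI50 marks 50% less growth. TGI: total growth inhibition.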

Experiments:
Assay in all cases: growth of human tumour cells (NCI), 48 h
[1] = test system: A549 NSCLC
[2] = test system: LOX IMVI melanoma
[3] = test system: OVCAR-3 ovarian
[4] = test system: SK-MEL-28 melanoma
[5] = test system: MOLT-4 leukemia
[6] = test system: ACHN renal
[7] = test system: TK-10 renal
[8] = test system: NCI-H460 lung
[9] = test system: 786-0 renal
[10] = test system: RPMI-8226 leukemia
[11] = test system: SF-295 CNS
[12] = test system: BT-549 breast
[13] = test system: SW-620 colon
[14] = test system: UACC-257 melanoma
[15] = test system: COLO 205 colon
[16] = test system: DU-145 prostate
[17] = test system: MDA-MB-435
[18] = test system: HL-60(TB) leukemia
[19] = test system: SF-539 CNS
[20] = test system: OVCAR-5 ovarian
[21] = test system: CCRF-CEM leukemia
[22] = test system: HCT-116 colon
[23] = test system: T-47D breast
[24] = test system: MCF7 breast
[25] = test system: SF-268 CNS
[26] = test system: EKVX NSCLC
[27] = test system: K-562 leukemia
[28] = test system: CAKI-1 renal
[29] = test system: NCI-H226 lung
[30] = test system: SN12C renal
[31] = test system: UO-31 renal
[32] = test system: SNB-75 CNS
[33] = test system: SK-MEL-5 melanoma
[34] = test system: RXF 393 renal
[35] = test system: NCI/ADR-RES ovarian
[36] = test system: HOP-62 NSCLC
[37] = test system: SNB-19 CNS
[38] = test system: HT29 colon
[39] = test system: SK-OV-3 ovarian
[40] = test system: OVCAR-4 ovarian
[41] = test system: M14 melanoma
[42] = test system: UACC-62 melanoma
[43] = test system: OVCAR-8 ovarian
[44] = test system: IGROV1 ovarian
[45] = test system: U251 CNS
[46] = test system: KM12 colon
[47] = test system: A498 renal
[48] = test system: HS 578T breast
[49] = test system: HCC-2998 colon
[50] = test system: HCT-15 colon
[51] = test system: HOP-92 NSCLC
[52] = test system: NCI-H23 lung
[53] = test system: SK-MEL-2 melanoma
[54] = test system: NCI-H522 lung
[55] = test system: MALME-3M melanoma
[56] = test system: PC-3 prostate
[57] = test system: MDA-MB-231 breast
[58] = test system: SR leukemia
[59] = test system: MDA-N

COc1cc2c(cc1O)N=C[C@@H]1C[C@@H](F)CN1C2=O
GI50 [1]: 7.97 µM
TGI [1]: > 19.7 µM
GI50 [2]: 2030 nM
TGI [2]: 7.21 µM
TGI [3]: 808 nM
GI50 [4]: 2900 nM
TGI [4]: 9.39 µM
GI50 [5]: 283 nM
TGI [5]: 1.23 µM
GI50 [6]: 2580 nM
TGI [6]: 6.15 µM
GI50 [7]: 1900 nM
TGI [7]: 13 µM
GI50 [8]: 1790 nM
TGI [8]: 4.61 µM
GI50 [9]: 2050 nM
TGI [9]: 12.3 µM
GI50 [10]: 216 nM
TGI [10]: 552 nM
GI50 [11]: 712 nM
TGI [11]: 4.33 µM
GI50 [12]: 869 nM
TGI [12]: 5.83 µM
GI50 [13]: 1160 nM
TGI [13]: 4.9 µM
GI50 [14]: 17.5 µM
TGI [14]: 34.4 µM
GI50 [15]: 3180 nM
TGI [15]: 11.5 µM
GI50 [16]: 964 nM
TGI [16]: 8.86 µM
GI50 [17]: 1550 nM
TGI [17]: 3510 nM
GI50 [18]: 588 nM
TGI [18]: 10.1 µM
GI50 [19]: 1190 nM
TGI [19]: 4.32 µM
GI50 [20]: 965 nM
TGI [20]: 6.66 µM
GI50 [21]: 304 nM
TGI [21]: 3.3 µM
GI50 [22]: 1830 nM
TGI [22]: 5.94 µM
GI50 [23]: 5290 nM
TGI [23]: 32.2 µM
GI50 [24]: 608 nM
TGI [24]: 9.06 µM
GI50 [25]: 449 nM
TGI [25]: 9.97 µM
GI50 [26]: 2850 nM
TGI [26]: 9.8 µM
GI50 [27]: 367 nM
TGI [27]: 4.81 µM
GI50 [28]: 281 nM
TGI [28]: 1500 nM
GI50 [29]: 2370 nM
TGI [29]: 5.39 µM
GI50 [30]: 2520 nM
TGI [30]: 8.71 µM
GI50 [31]: 1140 nM
TGI [31]: 9.62 µM
GI50 [32]: 15.5 µM
TGI [32]: 52.4 µM
GI50 [33]: 817 nM
TGI [33]: 2320 nM
GI50 [34]: 898 nM
TGI [34]: 2160 nM
GI50 [35]: 1870 nM
TGI [35]: 6.15 µM
GI50 [36]: 2550 nM
TGI [36]: 9.65 µM
GI50 [37]: 2790 nM
TGI [37]: 8.66 µM
GI50 [38]: 4100 nM
TGI [38]: > 44 µM
GI50 [39]: 5910 nM
TGI [39]: 18.3 µM
GI50 [40]: 3930 nM
TGI [40]: 14.5 µM
GI50 [41]: 1610 nM
TGI [41]: 3.73 µM
GI50 [42]: 1810 nM
TGI [42]: 3.46 µM
GI50 [43]: 6.37 µM
TGI [43]: 13.9 µM
GI50 [44]: 1650 nM
TGI [44]: 8.97 µM
GI50 [45]: 1830 nM
TGI [45]: 10.9 µM
GI50 [46]: 1810 nM
TGI [46]: 5040 nM
GI50 [47]: 938 nM
TGI [47]: 2890 nM
GI50 [48]: 96.4 nM
TGI [48]: 2130 nM
GI50 [49]: 1980 nM
TGI [49]: 5.66 µM
GI50 [50]: 2890 nM
TGI [50]: 9.33 µM
GI50 [51]: 269 nM
TGI [51]: 719 nM
GI50 [52]: 1820 nM
TGI [52]: 4.44 µM
GI50 [53]: 1160 nM
GI50 [54]: 289 nM
TGI [54]: 970 nM
GI50 [55]: 789 nM
TGI [55]: 2880 nM
GI50 [56]: 1830 nM
TGI [56]: 9.18 µM
GI50 [57]: 1840 nM
TGI [57]: 6.21 µM
GI50 [58]: 173 nM
TGI [58]: 0.602 µM

N#CCCC(CC#N)N1CCN(C(CC#N)CCC#N)CC1 (stereo not drawn)
TGI [1]: > 100 µM
TGI [3]: > 100000 nM
TGI [4]: > 100 µM
TGI [5]: > 100 µM
TGI [6]: > 100 µM
TGI [7]: > 100 µM
TGI [8]: > 100 µM
TGI [9]: > 100 µM
TGI [10]: > 100000 nM
TGI [11]: > 100 µM
TGI [12]: > 100 µM
TGI [13]: > 100 µM
TGI [14]: > 100 µM
TGI [15]: > 100 µM
TGI [16]: > 100 µM
TGI [18]: > 100 µM
TGI [19]: > 100 µM
TGI [20]: > 100 µM
TGI [21]: > 100 µM
TGI [22]: > 100 µM
TGI [24]: > 100 µM
TGI [25]: > 100 µM
TGI [26]: > 100 µM
TGI [27]: > 100 µM
TGI [59]: > 100 µM
TGI [28]: > 100000 nM
TGI [29]: > 100 µM
TGI [30]: > 100 µM
TGI [31]: > 100 µM
TGI [32]: > 100 µM
TGI [33]: > 100000 nM
TGI [34]: > 100000 nM
TGI [35]: > 100 µM
TGI [36]: > 100 µM
TGI [37]: > 100 µM
TGI [38]: > 100 µM
TGI [39]: > 100 µM
TGI [40]: > 100 µM
TGI [41]: > 100 µM
TGI [42]: > 100 µM
TGI [43]: > 100 µM
TGI [44]: > 100 µM
TGI [45]: > 100 µM
TGI [49]: > 100 µM
TGI [50]: > 100 µM
TGI [52]: > 100 µM
TGI [54]: > 100000 nM
TGI [55]: > 100000 nM
TGI [56]: > 100 µM
TGI [58]: > 100 µM

c1cc(N2CCCC2)c2nc(-c3[nH]ncc3Nc3ncnc4[nH]ccc34)[nH]c2c1
GI50 [1]: 0.0806 µM
TGI [1]: 0.455 µM
GI50 [2]: 25.4 nM
TGI [2]: 0.342 µM
GI50 [3]: 44.1 nM
TGI [3]: 663 nM
GI50 [4]: 99.2 nM
TGI [4]: 0.575 µM
GI50 [5]: 33.8 nM
TGI [5]: 4.83 µM
GI50 [6]: 30.2 nM
TGI [6]: 0.679 µM
GI50 [7]: 323 nM
TGI [7]: 1.38 µM
GI50 [8]: 90.8 nM
TGI [8]: 0.416 µM
GI50 [9]: 34.1 nM
TGI [9]: 0.56 µM
GI50 [10]: 254 nM
TGI [10]: 1060 nM
GI50 [11]: 44.1 nM
TGI [11]: 0.337 µM
GI50 [12]: 67.2 nM
TGI [12]: 0.736 µM
GI50 [13]: 68.4 nM
TGI [13]: 0.548 µM
GI50 [14]: 0.15 µM
TGI [14]: 1.11 µM
GI50 [15]: 285 nM
TGI [15]: 2.03 µM
GI50 [16]: 85.3 nM
TGI [16]: 0.777 µM
GI50 [17]: 94.4 nM
TGI [17]: 511 nM
GI50 [18]: 32.6 nM
TGI [18]: 0.0916 µM
GI50 [19]: 20.6 nM
TGI [19]: 0.256 µM
GI50 [20]: 115 nM
TGI [20]: 2.2 µM
GI50 [21]: 28 nM
TGI [21]: 1.31 µM
GI50 [22]: 25.5 nM
TGI [22]: 1.61 µM
GI50 [23]: 139 nM
TGI [23]: 5.97 µM
GI50 [24]: 80.6 nM
TGI [24]: 0.677 µM
GI50 [25]: 108 nM
TGI [25]: 0.569 µM
GI50 [26]: 151 nM
TGI [26]: 1.7 µM
GI50 [27]: < 11.5 nM
TGI [27]: > 35 µM
GI50 [28]: 22 nM
TGI [28]: 253 nM
GI50 [29]: 41 nM
TGI [29]: 0.204 µM
GI50 [30]: 54.3 nM
TGI [30]: 0.793 µM
GI50 [31]: 27.8 nM
TGI [31]: 0.267 µM
TGI [32]: 0.348 µM
GI50 [33]: 105 nM
TGI [33]: 424 nM
GI50 [34]: 22.8 nM
TGI [34]: 92.9 nM
GI50 [35]: 141 nM
TGI [35]: 1.26 µM
GI50 [36]: 100 nM
TGI [36]: 2.03 µM
GI50 [37]: 96.2 nM
TGI [37]: 1.58 µM
GI50 [38]: 371 nM
TGI [38]: 3.25 µM
GI50 [39]: 27.6 nM
TGI [39]: 0.586 µM
GI50 [40]: 146 nM
TGI [40]: 1.14 µM
GI50 [41]: 49.5 nM
TGI [41]: 0.483 µM
GI50 [42]: 55.4 nM
TGI [42]: 0.196 µM
GI50 [43]: 0.0847 µM
TGI [43]: 1.36 µM
GI50 [44]: 39.8 nM
TGI [44]: 0.239 µM
GI50 [45]: 47.4 nM
TGI [45]: 0.838 µM
GI50 [46]: 79.3 nM
TGI [46]: 459 nM
GI50 [47]: 20.2 nM
TGI [47]: 55 nM
TGI [48]: 77.1 nM
GI50 [49]: 176 nM
TGI [49]: 0.942 µM
GI50 [50]: 76.5 nM
TGI [50]: 0.584 µM
GI50 [51]: 29.8 nM
TGI [51]: 99.9 nM
GI50 [52]: 69.4 nM
TGI [52]: 0.68 µM
GI50 [53]: 53 nM
TGI [53]: 292 nM
GI50 [54]: 87.3 nM
TGI [54]: 1120 nM
GI50 [55]: 160 nM
TGI [55]: 800 nM
GI50 [56]: 26.1 nM
TGI [56]: 0.446 µM
GI50 [57]: 62.8 nM
TGI [57]: 0.418 µM
GI50 [58]: 36.2 nM
TGI [58]: 26.7 µM
